Values joined by “and” are separate entries in the source; they are usually repeats but may differ in a detail not shown here. Identical values can stand only once.
Tested on: 4 algal species
Test: Resistance of Paint Films to Algal Defacement (Modified ASTM Method D5589)
Type: cell-based
Set-up: key to 4 wk Rating / 10 wk Rating / 14 wk Rating: 0 showing no growth; 4 showing the highest growth
Settings: for Average 4 week rating: paint of Example 1, scale 0-4
Description: Procedure (Modified ASTM Method D5589): • 1. Sample substrates are coated with the corresponding paint samples containing the targeted amount of additive and antimicrobial. • 2. Depending upon the test conditions, samples are subjected to UV, leaching conditions, standard conditions, or a combination thereof. Leaching was performed for up to 7 days and with or without up to 600 hr of QUV in a weathering chamber. • 3. 4 algal species are used and inoculated every 2 weeks, including up to 18 weeks. Fresh plates were replaced at weeks 4, 10, 14, and 18. • 4. Ratings are scored on a range of 0-4, with 0 showing no growth and 4 showing the highest growth.

CCCCCCCCn1sccc1=O [N-octylisothiazolinone]
Average 4 week rating (Biocide 350 ppm + Additive 1,000 ppm): 3.7
Average 4 week rating (Biocide 350 ppm + Additive 3,000 ppm): 1.7
Average 4 week rating (Biocide 350 ppm, no additive): 2.7
Average 4 week rating (Biocide 700 ppm + Additive 1,000 ppm): 0.7
Average 4 week rating (Biocide 700 ppm + Additive 3,000 ppm): 0.0
Average 4 week rating (Biocide 700 ppm, no additive): 1.0
Average 4 week rating (Biocide 1,050 ppm + Additive 1,000 ppm): 0.0
Average 4 week rating (Biocide 1,050 ppm + Additive 3,000 ppm): 0.0
Average 4 week rating (Biocide 1,050 ppm, no additive): 1.3

Zinc pyrithione
4 wk Rating (Conc. 0.7% in paint of Example 1, algal growth rating 0-4, 4 wk): 0
10 wk Rating (Conc. 0.7% in paint of Example 1, algal growth rating 0-4, 10 wk): 0
14 wk Rating (Conc. 0.7% in paint of Example 1, algal growth rating 0-4, 14 wk): 0
4 wk ZOI (Conc. 0.7% in paint of Example 1, zone of inhibition, 4 wk): 15
18 wk ZOI (Conc. 0.7% in paint of Example 1, zone of inhibition, 18 wk): 0

zinc di(ethyl 4,4,4-trifluoroacetoacetate) dihydrate [Additive]
Average 4 week rating (Additive 1,000 ppm, no biocide): 3.7
Average 4 week rating (Additive 3,000 ppm, no biocide): 2.0
18 wk Rating (Conc. 0.3% in paint of Example 1, algal growth rating 0-4, 18 wk, dihydrate): 3 and 2
4 wk ZOI (Conc. 0.3% in paint of Example 1, zone of inhibition, 4 wk): 0
10 wk ZOI (Conc. 0.3% in paint of Example 1, zone of inhibition, 10 wk): 0
14 wk ZOI (Conc. 0.3% in paint of Example 1, zone of inhibition, 14 wk): 0
18 wk ZOI (Conc. 0.3% in paint of Example 1, zone of inhibition, 18 wk): 0

Reference: patent publication US20220363870A1, “Stain Resistant Additive” (Arxada AG, priority 2019, published 2022)
